Consider 40 molecules from patent publication US8618151B2, “Inhibitors of HCV NS5A” (Presidio Pharmaceuticals, Inc., priority 2008, dated 2013).

The structures appear in SMILES notation.

For the experiment, the system named is HCV genotype 1b replicon. Description: HCV replicon assay (1b_Huh-Luc/Neo-ET cell line, luciferase readout). Conditions: Hepatitis C virus, Huh-7, 72 h, read-out: Inhibition of HCV genotype 1b. The experiment is classed as cell-based. In a few lines:
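1b_Huh-Luc/Neo-ET Huh 7 cells carrying a bicistronic genotype 1b replicon; compounds added in triplicate the day after plating, 72 h incubation, then Bright-Glo luciferase read-out. Signal expressed as % of control; EC50 from curve fit, repeated several times.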
A general note: A replicon is a self-replicating genome or part of one, used to study replication in cells.
For the molecule `COC(=O)N[C@H](C(=O)N1CCC[C@H]1c1ncc(-c2ccc3cc(-c4ccc5nc([C@@H]6CCCN6C(=O)[C@@H](NC(=O)OC)C(C)C)[nH]c5n4)ccc3c2)[nH]1)C(C)C` [compound 198], the EC50 was under 1 nM.

Take `COC(=O)N[C@H](C(=O)N1CCC[C@H]1c1ncc(-c2ccc3cc(-c4ccc5nc([C@@H]6CCCN6C(=O)[C@H](NC(=O)OC)c6ccccc6)[nH]c5n4)ccc3c2)[nH]1)C(C)C` [compound 199]: the EC50 is under 1 nM.

Regarding `COC(=O)N[C@H](C(=O)N1CCC[C@H]1c1nc2ccc(-c3ccc4cc(-c5cnc([C@@H]6CCCN6C(=O)[C@H](NC(=O)OC)c6ccccc6)[nH]5)ccc4c3)nc2[nH]1)C(C)C` [compound 200], the EC50 is under 1 nM.

For `COC(=O)N[C@H](C(=O)N1CCC[C@H]1c1nc2ccc(-c3ccc4cc(-c5cnc([C@@H]6CCCN6C(=O)[C@@H](NC(=O)OC)C6CCOCC6)[nH]5)ccc4c3)nc2[nH]1)C(C)C` [compound 201], the EC50 was under 1 nM.

`COC(=O)N[C@H](C(=O)N1CCC[C@H]1c1ncc(-c2ccc3cc(-c4ccc5nc([C@@H]6CCCN6C(=O)[C@@H](NC(=O)OC)C6CCOCC6)[nH]c5n4)ccc3c2)[nH]1)C(C)C` [compound 202]: the EC50 was under 1 nM.

With `COC(=O)N[C@H](C(=O)N1CCC[C@H]1c1ncc(-c2ccc3cc(-c4ccc5nc([C@@H]6CCCN6C(=O)[C@@H](NC(=O)OC)C6CCOCC6)[nH]c5c4)ccc3c2)[nH]1)C1CCOCC1` [compound 203], the EC50 was under 1 nM.

On to `COC(=O)N[C@H](C(=O)N1CCC[C@H]1c1ncc(-c2ccc3cc(-c4ccc5nc([C@@H]6CCCN6C(=O)[C@@H](NC(=O)OC)C(C)C)[nH]c5c4)ncc3c2)[nH]1)C(C)C` [compound 204], for which the EC50 was under 1 nM.

Turning to `COC(=O)N[C@H](C(=O)N1CCC[C@H]1c1ncc(-c2ccc3cc(-c4ccc5nc([C@@H]6CCCN6C(=O)[C@@H](NC(=O)OC)C6CCOCC6)[nH]c5n4)ccc3c2)[nH]1)C1CCOCC1` [compound 205], the EC50 is under 1 nM.

Regarding `COC(=O)N[C@H](C(=O)N1CCC[C@H]1c1ncc(-c2ccc3nc(-c4ccc5nc([C@@H]6CCCN6C(=O)[C@@H](NC(=O)OC)C6CCOCC6)[nH]c5c4)ccc3c2)[nH]1)C1CCOCC1` [compound 206], the EC50 fell in the range of 1 to 9.9 nM.

Regarding `COC(=O)N[C@H](C(=O)N1CCC[C@H]1c1ncc(-c2cccc3c(-c4ccc5nc([C@@H]6CCCN6C(=O)[C@@H](NC(=O)OC)C(C)C)[nH]c5c4)cccc23)[nH]1)C(C)C` [compound 207], the EC50 is under 1 nM.

Consider `COC(=O)N[C@H](C(=O)N1CCC[C@H]1c1nc2ccc(-c3cccc4c(-c5cnc([C@@H]6CCCN6C(=O)[C@H](NC(=O)OC)c6ccccc6)[nH]5)cccc34)cc2[nH]1)C(C)C` [compound 208], for which the EC50 is under 1 nM.

Take `COC(=O)N[C@H](C(=O)N1CCC[C@H]1c1ncc(-c2ccc3cc(-c4ccc5nc([C@@H]6CCCN6C(=O)[C@@H](NC(=O)OC)C(C)C)[nH]c5c4)ccc3n2)[nH]1)C(C)C` [compound 209]: the EC50 was under 1 nM.

For the molecule `COC(=O)N[C@H](C(=O)N1CCC[C@H]1c1nc2ccc(-c3ccc4nc(-c5cnc([C@@H]6CCCN6C(=O)[C@H](NC(=O)OC)c6ccccc6)[nH]5)ccc4c3)cc2[nH]1)C(C)C` [compound 210], the EC50 was under 1 nM.

`COC(=O)N[C@H](C(=O)N1CCC[C@H]1c1nc2ccc(-c3ccc4nc(-c5cnc([C@@H]6CCCN6C(=O)[C@@H](NC(=O)OC)C6CCOCC6)[nH]5)ccc4c3)cc2[nH]1)C(C)C` [compound 211]: the EC50 was under 1 nM.

On to `COC(=O)N[C@H](C(=O)N1CCC[C@H]1c1nc2ccc(-c3ccc4cc(-c5cnc([C@@H]6CCCN6C(=O)[C@H](NC(=O)OC)c6ccccc6)[nH]5)ccc4c3)cc2[nH]1)C1CCOCC1` [compound 212], for which the EC50 was under 1 nM.

Turning to `COC(=O)N[C@H](C(=O)N1CCC[C@H]1c1ncc(-c2ccc3cc(-c4ccc5nc([C@@H]6CCCN6C(=O)[C@@H](c6ccccc6)N6CCOCC6)[nH]c5c4)ccc3c2)[nH]1)C(C)C` [compound 213], the EC50 was under 1 nM.

With `COC(=O)N[C@H](C(=O)N1CCC[C@H]1c1ncc(-c2ccc3c(-c4ccc5[nH]c([C@@H]6CCCN6C(=O)[C@@H](NC(=O)OC)C(C)C)nc5c4)cccc3c2)[nH]1)C(C)C` [compound 214], the EC50 lay in the range of 10 to 999 nM.

Turning to `COC(=O)N[C@H](C(=O)N1CCC[C@H]1c1nc2ccc(-c3cccc4c(-c5cnc([C@@H]6CCCN6C(=O)[C@@H](NC(=O)OC)C6CCOCC6)[nH]5)cccc34)cc2[nH]1)C(C)C` [compound 215], the EC50 was under 1 nM.

For `COC(=O)N[C@H](C(=O)N1CCC[C@H]1c1nc2ccc(-c3cc4ccc(-c5cnc([C@@H]6CCCN6C(=O)[C@@H](NC(=O)OC)C6CCOCC6)[nH]5)cc4cn3)cc2[nH]1)C(C)C` [compound 216], the EC50 is under 1 nM.

`COC(=O)N[C@H](C(=O)N1CCC[C@H]1c1ncc(-c2ccc3cc(-c4ccc5nc([C@@H]6CCCN6C(=O)[C@@H](NC(=O)OC)C6CCOCC6)[nH]c5c4)ncc3c2)[nH]1)C1CCOCC1` [compound 217]: the EC50 was 1 to 9.9 nM.

For the molecule `COC(=O)N[C@H](C(=O)N1CCC[C@H]1c1ncc(-c2ccc3cc(-c4ccc5nc([C@@H]6CCCN6C(=O)[C@@H](NC(=O)OC)C6CCCC6)[nH]c5c4)ccc3c2)[nH]1)C1CCCC1` [compound 218], the EC50 is under 1 nM.

Consider `COC(=O)N[C@H](C(=O)N1CCC[C@H]1c1ncc(-c2ccc(-c3nc4ccc(-c5cnc([C@@H]6CCCN6C(=O)[C@@H](NC(=O)OC)C(C)C)[nH]5)cc4s3)cc2)[nH]1)C(C)C` [compound 229], for which the EC50 is under 1 nM.

On to `COC(=O)N[C@@H](C(=O)N1CCC[C@H]1c1ncc(-c2ccc(-c3nc4ccc(-c5cnc([C@@H]6CCCN6C(=O)[C@H](NC(=O)OC)c6ccccc6)[nH]5)cc4s3)cc2)[nH]1)c1ccccc1` [compound 230], for which the EC50 was under 1 nM.

`COC(=O)N[C@H](C(=O)N1CCC[C@H]1c1ncc(-c2ccc(-c3nc4ccc(-c5cnc([C@@H]6CCCN6C(=O)[C@@H](NC(=O)OC)C(C)C)[nH]5)cc4n3C)cc2)[nH]1)C(C)C` [compound 231]: the EC50 was under 1 nM.

With `COC(=O)N[C@H](C(=O)N1CCC[C@H]1c1ncc(-c2ccc(-c3nc4cc(-c5cnc([C@@H]6CCCN6C(=O)[C@@H](NC(=O)OC)C(C)C)[nH]5)ccc4n3C)cc2)[nH]1)C(C)C` [compound 232], the EC50 was under 1 nM.

For the molecule `COC(=O)N[C@@H](C(=O)N1CCC[C@H]1c1ncc(-c2ccc(-c3nc4cc(-c5cnc([C@@H]6CCCN6C(=O)[C@H](NC(=O)OC)c6ccccc6)[nH]5)ccc4n3C)cc2)[nH]1)c1ccccc1` [compound 233], the EC50 was under 1 nM.

As to `COC(=O)N[C@H](C(=O)N1CCC[C@H]1c1ncc(-c2ccc(-c3nc4ccc(-c5cnc([C@@H]6CCCN6C(=O)[C@@H](NC(=O)OC)C(C)C)[nH]5)cc4o3)cc2)[nH]1)C(C)C` [compound 234], the EC50 was under 1 nM.

With `COC(=O)N[C@@H](C(=O)N1CCC[C@H]1c1ncc(-c2ccc(-c3nc4ccc(-c5cnc([C@@H]6CCCN6C(=O)[C@H](NC(=O)OC)c6ccccc6)[nH]5)cc4o3)cc2)[nH]1)c1ccccc1` [compound 235], the EC50 was under 1 nM.

`COC(=O)N[C@H](C(=O)N1CCC[C@H]1c1ncc(-c2ccc(-c3nc4cc(-c5cnc([C@@H]6CCCN6C(=O)[C@@H](NC(=O)OC)C(C)C)[nH]5)ccc4o3)cc2)[nH]1)C(C)C` [compound 236]: the EC50 was under 1 nM.

`COC(=O)N[C@@H](C(=O)N1CCC[C@H]1c1ncc(-c2ccc(-c3nc4cc(-c5cnc([C@@H]6CCCN6C(=O)[C@H](NC(=O)OC)c6ccccc6)[nH]5)ccc4o3)cc2)[nH]1)c1ccccc1` [compound 237]: the EC50 is under 1 nM.

For the molecule `COC(=O)N[C@H](C(=O)N1CCC[C@H]1c1ncc(-c2ccc(-c3nc4cc(-c5cnc([C@@H]6CCCN6C(=O)[C@@H](NC(=O)OC)[C@@H](C)OC)[nH]5)ccc4o3)cc2)[nH]1)[C@@H](C)OC` [compound 238], the EC50 is under 1 nM.

With `COC(=O)N[C@H](C(=O)N1CCC[C@H]1c1ncc(-c2ccc(-c3nc4cc(-c5cnc([C@@H]6CCCN6C(=O)[C@@H](NC(=O)OC)C6CC6)[nH]5)ccc4o3)cc2)[nH]1)C1CC1` [compound 239], the EC50 is under 1 nM.

As to `COC(=O)N[C@H](C(=O)N1CCC[C@H]1c1ncc(-c2ccc(-c3nc4cc(-c5cnc([C@@H]6CCCN6C(=O)[C@@H](NC(=O)OC)C(C)C)[nH]5)ccc4s3)cc2)[nH]1)C(C)C` [compound 240], the EC50 is under 1 nM.

With `COC(=O)N[C@H](C(=O)N1CCC[C@H]1c1ncc(-c2ccc(-c3nc4ccc(-c5cnc([C@@H]6CCCN6C(=O)[C@H](NC(=O)OC)c6ccccc6)[nH]5)cc4s3)cc2)[nH]1)C(C)C` [compound 241], the EC50 was under 1 nM.

As for `COC(=O)N[C@H](C(=O)N1CCC[C@H]1c1ncc(-c2ccc(-c3nc4ccc(-c5cnc([C@@H]6CCCN6C(=O)[C@H](NC(=O)OC(C)(C)C)c6ccccc6)[nH]5)cc4s3)cc2)[nH]1)C(C)C` [compound 242], the EC50 was under 1 nM.

Consider `COC(=O)N[C@H](C(=O)N1CCCC[C@H]1c1ncc(-c2ccc(-c3nc4ccc(-c5cnc([C@@H]6CCCCN6C(=O)[C@@H](NC(=O)OC)C(C)C)[nH]5)cc4s3)cc2)[nH]1)C(C)C` [compound 243], for which the EC50 was under 1 nM.

Turning to `CCNC(=O)N[C@@H](C(=O)N1CCC[C@H]1c1ncc(-c2ccc3nc(-c4ccc(-c5cnc([C@@H]6CCCN6C(=O)[C@@H](NC(=O)OC)C(C)C)[nH]5)cc4)sc3c2)[nH]1)c1ccccc1` [compound 244], the EC50 was under 1 nM.

Take `CNC(=O)N[C@@H](C(=O)N1CCC[C@H]1c1ncc(-c2ccc3nc(-c4ccc(-c5cnc([C@@H]6CCCN6C(=O)[C@@H](NC(=O)OC)C(C)C)[nH]5)cc4)sc3c2)[nH]1)c1ccccc1` [compound 245]: the EC50 is under 1 nM.

Consider `COC(=O)N[C@H](C(=O)N1CCC[C@H]1c1ncc(-c2ccc(-c3nc4ccc(-c5cnc([C@@H]6CCCN6C(=O)OCc6ccccc6)[nH]5)cc4s3)cc2)[nH]1)C(C)C` [compound 246], for which the EC50 is under 1 nM.

With `COC(=O)N[C@H](C(=O)N1CCC[C@H]1c1ncc(-c2ccc(-c3nc4ccc(-c5cnc([C@@H]6CCCN6C(=O)[C@H](NC(=O)OC(C)(C)C)c6ccccc6)[nH]5)cc4o3)cc2)[nH]1)C(C)C` [compound 247], the EC50 is under 1 nM.
